Residues, ends and D or L forms follow the SMILES beside them.
Columns and labels:
[1] = Plasma half-life in humans; assay type: in vivo; conditions: intravenous, 2.6 mg/kg, human, human equivalent concentrations
acute ischemic stroke = test: ESCAPE-NA1 trial: treatment emergent serious adverse events; assay type: in vivo, human
Source text: The primary outcome was good outcome as defined by a score of 0-2 on the modified Rankin scale (mRS) (range, 0 [no symptoms] to 6 [death]) for the assessment of neurologic functional disability^2 assessed in person or, if an in-person visit was not possible, by telephone, at 90 days after randomization by personnel certified in the scoring of the mRS. Secondary efficacy outcomes were neurological outcome as defined by the NIHSS of 0-2, functional independence in activities of daily living as defined by a Barthel Index score of ≥95, excellent functional outcome as defined by a score of 0-1 on the mRS and mortality rates. Tertiary outcomes included assessments of stroke volumes on 24-hour imaging (MR or CT brain). Prespecified safety outcomes were all serious adverse events and mortality. Imaging interpretation was conducted at a central core laboratory and clinical data were verified by independent monitors. Infarct volumes were measured by summation of manual planimetric demarcation of infarct on axial imaging (636/1099 (57.9%) on CT and 463/1099 (42.1%) on MRI).
The safety population included all patients who received any amount of study drug (n=1101). There were no differences in important safety outcomes. (Table 3).

[2] = In-vitro peptide degradation assay in rat plasma with rt-PA or TNK
Method: To determine nerinetide stability in the presence of rt-PA in plasma, we use an in-vitro peptide content analysis by HPLC. In brief, Nerinetide or D-Tat-L-2B9c were spiked into rat or human plasma at a concentration of 65 ug/ml. rt-PA was added after the baseline time-point was collected, at the specified concentrations. rt-PA administration followed the clinical dosing approach [10% bolus dose followed by 60-mins infusion (90% of the dose)], using a Harvard apparatus pump. Sample collection following IV bolus was performed at 5 min, 15 min, 30 min and 45 min post-dose. At each time point, approximately 100 uL of plasma was collected from each vial using a fresh syringe. Plasma was then collected and stored at -80° C. until analyzed.
Nerinetide or D-Tat-L2B9c was extracted by precipitation with 1M perchloric acid. All analyses were performed on an Agilent 1260 Infinity Quaternary LC System (Agilent Technologies, Santa Clara, Calif., USA) and on a 25 cm [YMAA12S052546WT] C-18 RP-HPLC column (Agilent Technologies, Santa Clara, Calif., USA). The column was equilibrated with 10% acetonitrile with 0.1% TFA at 40° C. The eluent flow was 1.5 ml/min (gradient from 10% to 35% acetonitrile in 0.1% TFA) The UV trace was recorded at 220 nm. Concentrations of nerinetide or D-Tat-L-2B9c were derived from calibration standards obtained by spiking the agent into plasma.

## CC[C@H](C)[C@H](NC(=O)[C@H](CO)NC(=O)[C@H](CO)NC(=O)[C@H](CC(C)C)NC(=O)[C@H](CCCCN)NC(=O)[C@H](CCCN=C(N)N)NC(=O)[C@H](CCCN=C(N)N)NC(=O)[C@H](CCCN=C(N)N)NC(=O)[C@H](CCC(N)=O)NC(=O)[C@H](CCCN=C(N)N)NC(=O)[C@H](CCCN=C(N)N)NC(=O)[C@H](CCCCN)NC(=O)[C@H](CCCCN)NC(=O)[C@H](CCCN=C(N)N)NC(=O)CNC(=O)[C@@H](N)Cc1ccc(O)cc1)C(=O)N[C@@H](CCC(=O)O)C(=O)N[C@@H](CO)C(=O)N[C@@H](CC(=O)O)C(=O)N[C@H](C(=O)O)C(C)C [Nerinetide] (H-YGRKKRRQRRRKLSSIESDV-OH)
[1]
  half-life: 5 to 10 min
Acute ischemic stroke; nerinetide n = 547
  Angioedema, patients number (proportion): 1 (0.2%)
  Congestive cardiac failure, patients number (proportion): 9 (1.6%)
  Deep vein thrombosis/pulmonary embolism, patients number (proportion): 3 (0.5%)
  Hives/Urticaria/Pruritis, number of patients: 0
  Hypotension, patients number (proportion): 7 (1.3%)
  Ischaemic stroke (new onset/recurrent), patients number (proportion): 18 (3.3%)
  Pneumonia, patients number (proportion): 25 (4.6%)
  Stroke-in-evolution (progression), patients number (proportion): 36 (6.6%)
  Symptomatic ICH, patients number (proportion): 19 (3.5%)
  Urinary tract infection, patients number (proportion): 8 (1.5%)
Acute ischemic stroke; nerinetide vs placebo
  Angioedema, RR (95% CI) unadjusted: 1.01 (0.06-16.1)
  Any serious adverse Event, RR (95% CI) unadjusted: 0.92 (0.79-1.09)
  Congestive cardiac failure, RR (95% CI) unadjusted: 2.28 (0.71-7.36)
  Deep vein thrombosis/pulmonary embolism, RR (95% CI) unadjusted: 0.38 (0.1-1.42)
  Hypotension, RR (95% CI) unadjusted: 7.09 (0.88-57.4)
  Ischaemic stroke (new onset/recurrent), RR (95% CI) unadjusted: 0.91 (0.49-1.70)
  Pneumonia, RR (95% CI) unadjusted: 1.49 (0.81-2.73)
  Stroke-in-evolution (progression), RR (95% CI) unadjusted: 0.85 (0.55-1.30)
  Symptomatic ICH, RR (95% CI) unadjusted: 0.80 (0.44-1.45)
  Urinary tract infection, RR (95% CI) unadjusted: 1.15 (0.42-3.17)
Acute ischemic stroke; patients treated with nerinetide
  rates of adverse events compared with placebo: no significant differences
Acute ischemic stroke; safety population, nerinetide n = 547
  Any serious adverse Event, patients number (proportion): 181 (33.1%)
[2]; 65 ug/ml nerinetide, 37° C., alteplase over 60 minutes
  nerinetide content in rat plasma on addition of alteplase: reduced the nerinetide content in rat plasma in a concentration-dependent manner
[2]; TNK 37.5 ug/ml
  elimination in rat plasma with tenecteplase (TNK): rapid elimination
[2]; absence of alteplase
  stability alone in rat plasma: stable
[2]; rt-PA 135 ug/ml
  degradation in rat plasma with alteplase: rapid degradation

From patent US20230139826A1 (NONO INC., priority 2020, published 2023)
